Test results from patent US12655107B2 (The United States of America, as represented by the …, priority 2018, dated 2026).

Key:
[1] = system: γH2AX foci in HCT116 cells; assay: γH2AX detection by immunofluorescence; assay type: cell-based, human; conditions: HCT116, 1 μM, 3 h
Experimental: To evaluate the DNA damaging effect of 50 in cancer cells, γH2AX foci were assessed by immunofluorescence microscopy in human […] HCT116 cells. After incubation with the compounds for 3 h, the HCT116 cells were stained with γH2AX antibodies.
HCT116 cells (2×10^4 cells/mL) were grown in culture medium and treated with compounds for 3 h at 37° C. […] Cells were permeabilized with 0.5% Triton X-100 in PBS at 0° C. for 30 min. Dish was blocked with 5% goat serum/PBS at 37° C. for 3 h. […] The dishes were again washed six times with blocking buffer. Digital images were recorded using an LSM710 microscope (Zeiss, Germany) and analyzed with ZEN software.

[2] = system: HCT116 cells; assay: Flow cytometry apoptosis assay; assay type: cell-based, human; conditions: HCT116, 24 h, 0.5, 1 and 2 μM
Experimental: To evaluate the induction of apoptosis by 50, flow cytometry assays were performed in HCT116 cells.
The stained cells were analyzed by using flow cytometry (BD, FACSCalibur, USA) within I h. The experiments were repeated three times independently.

[3] = system: HCT116 xenograft; assay: In vivo antitumor activity, HCT116 xenograft; conditions: HCT116 xenograft
[4] = system: pBR322 DNA; assay: Top1-mediated unwinding assay; assay type: biochemical; conditions: supercoiled or relaxed pBR322 DNA, excess Top1, 19a up to 9 μM
Experimental: The binding of classical DNA intercalators between the base pair of circular DNA produce Top1-mediated unwinding effect, thereby antagonizing Top1-mediated DNA relaxation. […]. […] […]. The reaction mixture (20 μL) contained supercoiled or relaxed pBR322 DNA (0.5 μg), tested compounds and excess Top1 (10 units) in relaxing buffer (10 mM Tris, pH 7.5, 0.1 mM EDTA, 5 mM MgCl2, 50 mM KCl, 1 mM DTT, 15 μg/mL acetylated BSA). The DNA was incubated with the tested compounds at room temperature for 10 min prior to the addition of Top1. After being incubated for 30 min at 37° C., the reaction was terminated by the addition of […] loading buffer. The results were analyzed using 1% agarose gel in TAE buffer at 5 V/cm. The gel was stained with gel red and visualized with a UV transilluminator.

[5] = Pharmacokinetic study in rat; conditions: SD rats, i.g. 5 mg/kg
Experimental: The SD rats were divided into two groups (n=3) and treated by intravenous injection (i.v.) at 1 mg/kg dose and intragastrical administration (i.g.) at 5 mg/kg dose, respectively.
A pharmacokinetic (PK) study in vivo of 50 was performed in Sprague-Dawley (SD) rats. The SD rats were randomly divided into two groups […] and treated by intravenous injection (iv) at 1 mg/kg dose or an intragastrical administration (ig) at 5 mg/kg dose, respectively. Plasma samples were collected postdosing and the concentration of 50 was measured.
Plasma samples (100 μL) were obtained after centrifugation for 10 min at 3000 rpm and stored at −20° C. until used for analysis. The plasma was detected through LC-MS-MS.

[6] = biological target: T1, Top1 (Homo sapiens, UniProt P11387); assay: Top1-mediated DNA cleavage assay; assay type: biochemical; conditions: semi-quantitative score relative to CPT (1) at 1 μM; tested at 0.1-100 μM
T1 sequence (P11387 1-765): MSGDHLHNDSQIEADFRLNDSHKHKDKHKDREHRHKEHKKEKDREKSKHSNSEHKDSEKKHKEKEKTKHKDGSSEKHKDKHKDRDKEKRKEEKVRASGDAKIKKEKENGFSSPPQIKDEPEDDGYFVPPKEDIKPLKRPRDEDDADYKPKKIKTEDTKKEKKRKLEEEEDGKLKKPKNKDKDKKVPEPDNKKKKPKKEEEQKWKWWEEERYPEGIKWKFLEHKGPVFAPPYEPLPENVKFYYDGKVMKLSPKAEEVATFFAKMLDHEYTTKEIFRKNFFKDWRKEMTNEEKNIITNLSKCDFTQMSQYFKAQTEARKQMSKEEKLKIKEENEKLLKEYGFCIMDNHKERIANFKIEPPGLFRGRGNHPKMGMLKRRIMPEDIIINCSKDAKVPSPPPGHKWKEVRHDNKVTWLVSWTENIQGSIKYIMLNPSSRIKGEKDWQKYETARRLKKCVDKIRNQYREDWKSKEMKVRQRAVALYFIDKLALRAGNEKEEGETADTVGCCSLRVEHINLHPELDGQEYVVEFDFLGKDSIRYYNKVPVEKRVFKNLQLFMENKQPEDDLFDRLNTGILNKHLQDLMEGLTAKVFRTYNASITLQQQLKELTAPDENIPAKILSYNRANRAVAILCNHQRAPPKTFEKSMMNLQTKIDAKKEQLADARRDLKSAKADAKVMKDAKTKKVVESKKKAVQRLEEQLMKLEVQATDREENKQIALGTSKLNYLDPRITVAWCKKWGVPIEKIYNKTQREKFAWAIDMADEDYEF

[7] = biological target: T2, Tdp1 (Homo sapiens, UniProt Q9NUW8); assay: Tdp1 inhibition fluorescence assay; assay type: biochemical; conditions: compounds at 100 μM
T2 sequence (Q9NUW8 whole entry): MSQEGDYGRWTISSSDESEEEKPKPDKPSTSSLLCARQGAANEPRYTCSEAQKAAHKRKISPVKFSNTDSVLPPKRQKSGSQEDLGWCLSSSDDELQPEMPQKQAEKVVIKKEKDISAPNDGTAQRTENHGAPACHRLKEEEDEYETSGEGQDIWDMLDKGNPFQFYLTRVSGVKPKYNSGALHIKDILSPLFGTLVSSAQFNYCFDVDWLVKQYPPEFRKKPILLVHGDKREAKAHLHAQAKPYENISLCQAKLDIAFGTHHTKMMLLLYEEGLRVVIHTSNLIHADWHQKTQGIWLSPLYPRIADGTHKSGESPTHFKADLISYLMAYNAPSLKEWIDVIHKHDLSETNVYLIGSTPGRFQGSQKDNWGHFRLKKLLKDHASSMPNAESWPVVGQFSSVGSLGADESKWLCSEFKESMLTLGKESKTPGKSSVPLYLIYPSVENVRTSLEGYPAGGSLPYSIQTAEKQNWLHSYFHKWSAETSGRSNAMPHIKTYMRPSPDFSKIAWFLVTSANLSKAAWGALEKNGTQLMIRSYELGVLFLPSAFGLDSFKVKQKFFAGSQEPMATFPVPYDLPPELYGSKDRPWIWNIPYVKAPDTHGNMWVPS
Experimental: Tdp Inhibition. […] The compounds were tested at 100 μM concentration. […] Fluorescence assay. […] Tdp1 solution (20 μL/well, 0.02 μL purified Tdp1 (100 nM) in 10 mM Tris-HCl, pH 7.5, 50 mM KCL, I mM EDTA, 1 mM DTT) was dispensed into wells of a white 384-well plate (NEST). The tested compound solution in DMSO (5 μL) was pinned into assay plates and incubated at room temperature for 30 min. […] Tdp percentage inhibition of the tested compounds was calculated by comparing the rate of increase in fluorescence throughout time for the compound-treated wells to that of DMSO control wells.

[8] = system: CCRF-CEM; assay: MTT cytotoxicity assay, CCRF-CEM; assay type: cell-based, human; conditions: 72 h, Table 1b
Experimental: (§1) Cytotoxicity Assays. […] The cells were incubated with the tested compounds for 72 hours in a five-dose assay ranging from 0.01 to 100 μM concentration. After drug treatments, MTT solution was added to test the percentage growth of tumor cells.
(§2) For the drug treatment experiments, the cancer cells were treated with the compounds (predissolved in DMSO) at a five-dose assay ranging from 0.01 to 100 μM concentration. […] After 4 h incubation, the formazan crystal formed in the well was dissolved with […] of DMSO for optical density reading at 570 nm. The GI50 value was calculated by nonlinear regression analysis (GraphPad Prism).

[9] = system: Huh7; assay: MTT cytotoxicity assay, Huh7; assay type: cell-based, human; conditions: 72 h, Table 1b
Experimental: as §1, §2

[10] = system: F10T dsDNA; assay: FRET melting assay; assay type: binding; conditions: compounds at 2 μM
Experimental: It was reported that nitidine can intercalate into double-stranded DNA (dsDNA) and inhibit Top1. […] The DNA intercalator 49 was used as positive control.
FRET melting assay was carried out on a real-time PCR apparatus as the following methods. […] In the experiment, the annealed oligonucleotide (final concentration of 0.4 μM) were incubated with the tested compounds (2 μM) in a total reaction volume of Tris-HCl buffer (10 mM, pH 7.4) containing 60 mM KCl at 37° C. for 0.5 h. Fluorescence melting curves were determined with a Roche LightCycler 2 real-time PCR machine with excitation at 470 nm and detection at 530 nm.

[11] = system: A549; assay: MTT cytotoxicity assay, A549; assay type: cell-based, human; conditions: 72 h, Table 1b, read-out: GI50 (μM) A549
Experimental: as §1
(§3) The compounds were incubated with the cells for 72 hours in a five-dose assay ranging from 0.01 to 100 μM concentration. At the end of the incubation, the MTT solution was added to test the percentage growth of tumor cells.
as §2

[12] = system: DU145; assay: MTT cytotoxicity assay, DU145; assay type: cell-based, human; conditions: 72 h, Table 1b, read-out: GI50 (μM) DU145
Experimental: as §1, §3, §2

[13] = system: HCT116; assay: MTT cytotoxicity assay, HCT116; assay type: cell-based, human; conditions: 72 h, Table 1b, read-out: GI50 (μM) HCT116
Experimental: as §1, §3, §2

[14] = biological target: T2, Tdp1; conditions: reported in the background; cited from earlier work

COc1cc2c(=O)n(CCN(C)C)c3c4cc5c(cc4ccc3c2cc1OC)OCO5 [Compound 19a, 12-(2-(Dimethylamino)ethyl)-2,3-dimethoxy-[1,3]dioxolo[4′,5′:4,5]benzo[1,2-c]phenanthridin-13(12H)-one]
γH2AX foci [1]: γH2AX foci were induced | induction of apoptosis [2]: significantly induce HCT116 cells apoptosis in a dose-dependent manner | body weight ([3]; 5 mg/kg i.p. daily): no obvious body loss | body weight ([3]; 10 mg/kg i.p. daily): Body weight loss was found | tumor volume ([3]; i.p. once every day): significantly reduced tumor volume in a dose-dependent manner | Top1-mediated unwinding effect [4]: no Top1-mediated unwinding effect | Tmax [5]: 1.17 ± 0.76 h

COc1cc2c(cc1OC)-c1ccc3cc4c(cc3c1N(CCN(C)C)C2)OCO4 [Compound 26a, 2-(2,3-Dimethoxy-[1,3]dioxolo[4′,5′:4,5]benzo[1,2-c]phenanthridin-12(131)-yl)-N,N-dimethylethan-1-amine]
TOP1 inhibition [6]: + (+, between 20% and 50% activity) | TDP1 inhibition [7]: 0% | GI50 [8]: 0.95 ± 0.14 µM | GI50 (μM) CCRF-CEM [8]: submicromolar concentration | GI50 [9]: 7.78 ± 2.91 µM | ΔTm (°C.) F10T [10]: 1.0 °C | GI50 [11]: 6.68 ± 1.93 µM | GI50 [12]: 1.93 ± 0.41 µM | GI50 [13]: 7.36 ± 3.55 µM

[Na+].[Na+].[Na+].[O]=[V]([O-])([O-])[O-] [sodium orthovanadate]
Tdp1 inhibition [14]: inhibition only at millimolar concentration
